Patent US20240335490A1, “COMPOSITION FOR PREVENTING OR AMELIORATING LOCOMOTIVE SYNDROME” (DIC Corporation, priority 2021, published 2024)

Experiments:
[1] = test system: male and female subjects who feel a decline in mobility; experiment: Joint pain reducing effect questionnaire (0 to 10 scale, pain felt in walking); type: in vivo, human; conditions: conclusion from the results of Table 1
Description: (§1) Ingredients were mixed at proportions shown in Table 1 below and subjected to tablet molding to produce tableted products in Examples 1 to 3 and Comparative Examples 1 and 2 in the present invention. As the blended ingredients, commercially available products were used. In order to uniform appearance, Blue No. 2 was added to adjust the color. In each of Examples and Comparative Examples, six tableted products were produced such that the daily intake was 1,800 mg.
(§2) Twenty male and female subjects who feel a decline in mobility in their 40s to 70s were divided into five groups of four subjects each. In each group, two tablets in each of Examples 1, 2, and 3 and Comparative Examples 1 and 2 were taken three times a day in the morning, noon, and evening for four weeks. Two weeks and four weeks after the initiation of the test, the following questionnaires were carried out.
An equal-interval scale of 0 to 10 was prepared, and a score of 5 that is the middle means before the initiation of the test or no change, a score closer to 0 means deterioration, and a score closer to 10 means amelioration. The subjects were made to plot the experience evaluation of the joint pain reducing effect in which the subjects felt in walking. Scores plotted by the subjects were considered to be test evaluation.

[2] = test system: male and female subjects who feel a decline in mobility; experiment: Mobility ameliorating effect questionnaire (0 to 10 scale, ease of walking); type: in vivo, human; conditions: conclusion from the results of Table 1
Description: as §1, §2
An equal-interval scale of 0 to 10 was prepared, and a score of 5 that is the middle means no change, a score closer to 0 means that walking is difficult, and a score closer to 10 means that walking is easy. The subjects were made to plot the experience evaluation. Scores plotted by the subjects were considered to be test evaluation.

phycocyanin
effect on the joint (conclusion in words) [1]: recognized to exert the effect on the joint
mobility ameliorating effect (conclusion in words) [2]: recognized to exert
